Source: patent US20120309750A1, “5-MEMBERED HETEROCYCLE DERIVATIVES AND MANUFACTURING PROCESS THEREOF” (ILDONG PHARM CO., LTD., priority 2010, published 2012)

Key:
[1] = test system: human colorectal cancer cells (HCT116); experiment: Growth inhibition assay (cytotoxicity) in HCT116; type: cell-based; conditions: HCT-116
Procedure: (§1) For present invention, the ATPase activity of yeast HSP90 was measured using malachite green assay. Formula I compounds for primary antitumoral activity were treated in human colorectal cancer cells (HCT116) showing increased expression levels of HSP90 client protein and cotoxicity IC50 values was measured as a result.

yeast HSP90 = yeast HSP90 (Saccharomyces cerevisiae, UniProt P02829); experiment: Hsp90 ATPase assay (malachite green); type: biochemical
Chain of yeast HSP90 (P02829 whole entry): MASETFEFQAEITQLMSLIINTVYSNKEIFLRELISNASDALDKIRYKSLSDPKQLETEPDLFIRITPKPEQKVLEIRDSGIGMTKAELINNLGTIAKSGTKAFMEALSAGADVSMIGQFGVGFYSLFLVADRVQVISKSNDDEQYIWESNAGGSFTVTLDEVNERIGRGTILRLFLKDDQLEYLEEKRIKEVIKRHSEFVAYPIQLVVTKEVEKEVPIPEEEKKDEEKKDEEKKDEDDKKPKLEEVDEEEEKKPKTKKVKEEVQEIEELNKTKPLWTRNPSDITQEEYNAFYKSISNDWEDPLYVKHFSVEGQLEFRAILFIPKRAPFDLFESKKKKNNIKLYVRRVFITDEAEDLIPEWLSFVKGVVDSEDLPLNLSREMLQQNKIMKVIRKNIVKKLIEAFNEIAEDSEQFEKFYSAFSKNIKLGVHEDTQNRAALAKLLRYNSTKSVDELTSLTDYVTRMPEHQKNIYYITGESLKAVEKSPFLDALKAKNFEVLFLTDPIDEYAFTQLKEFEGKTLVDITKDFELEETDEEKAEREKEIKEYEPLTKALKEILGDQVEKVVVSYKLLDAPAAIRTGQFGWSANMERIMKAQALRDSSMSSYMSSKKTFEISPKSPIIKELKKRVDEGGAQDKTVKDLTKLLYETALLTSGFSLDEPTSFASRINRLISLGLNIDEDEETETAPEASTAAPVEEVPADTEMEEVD
Procedure: as §1

[2] = test system: A2780 Human ovarian cancer cells; experiment: In vivo antitumor efficacy, A2780 subcutaneous xenograft; conditions: 200 mg/kg po qdx5, 2 weeks, A2780 xenograft in female Balb/c nude mice
Procedure: A2780 Human ovarian cancer cells were established as subcutaneous xenografts by injection of 8×10^6 cells into the flanks of adult female Balb/c nude mice. Mice with established tumors (50-200 mm^3) were selected for study (n=3-6/treatment group). The test compounds were formulated in ethanol-PEG400-DW and administered orally (po) at a dose of 200 mg/kg. The vehicle alone was administered to control groups. Animals were dosed 5 days per week (Monday through Friday) for 2 consecutive weeks. Animals were weighed and tumor size was determined twice weekly by caliper measurements, and tumor volumes were calculated (volume=[l×w^2]/2(mm^3), where l and w refer to the larger and smaller dimensions collected at each measurement). The mean tumor volumes of each group were calculated. The change in mean treated tumor volume was divided by the change in mean control tumor volume, multiplied by 100 and subtracted from 100% to give the tumor growth inhibition for each group.

[3] = Mouse pharmacokinetics of prodrug after oral gavage; type: in vivo, Balb/c male mice; conditions: single PO dose 100 mg/kg
Procedure: Pharmacokinetics test was carried out in order to confirm the change from invented prodrugs to parent compounds in vivo. Balb/c male mice are dosed with a prodrug by oral gavages. A single administration of a prodrug is given and a dose volume of 10 mL/kg is used for PO doses.
Blood samples are collected in lithium heparin coated tubes at 10, 20, 30, 60, 120 min. Plasma is isolated by centrifugation and frozen before analysis. Plasma samples are prepared by liquid-liquid extraction with Ethyl acetate containing internal standard. Quantification is by using a LC-MS/MS method specific to the selected compound. Animals that had been dosed the selected compound were analyzed for prodrug and the parent compound. Pharmacokinetics parameters are calculated using WinNonLinnon compartmental analysis software.

| Compound | IC50 [1] [nM] | IC50 (yeast HSP90) [nM] | % TGI [2] [%] | exposure of the active pharmaceutical agent (I-97) relative to the starting dose [3] |
| --- | --- | --- | --- | --- |
| CCNC(=O)c1noc(-c2cc(C(C)C)c(O)cc2O)c1-c1noc(C)n1 [Compound I-60, 5-(2,4-Dihydroxy-5-isopropylphenyl)-N-ethyl-4-(5-methyl-1,2,4-oxadiazol-3-yl) isoxazole-3-carboxamide] | < 500 | < 500 | 50 | – |
| CCNC(=O)c1noc(-c2cc(C(C)C)c(OC(=O)[C@@H]3CCCN3C(=O)OC(C)(C)C)cc2OC(=O)C2CCCN2C(=O)OC(C)(C)C)c1-c1ccn(C)n1 (stereo partly drawn) [II-8, (2S,2′S)-1-tert-Butyl^′2,2-4-(3-(ethylcarbamoyl)-4-(1-methyl-1H-pyrazol-3-yl)isoxazol-5-yl)-6-isopropyl-1,3-phenylene dipyrrolidine-1,2-dicarboxylate] | – | – | – | optimal exposure |
| CCNC(=O)c1noc(-c2cc(C(C)C)c(O)cc2O)c1-c1ccsc1CN1CCOCC1 [Compound I-2, 5-(2,4-Dihydroxy-5-isopropylphenyl)-N-ethyl-4-(2-(morpholinomethyl)thiophen-3-yl)isoxazole-3-carboxamide] | < 500 | > 1000 | – | – |
| CCNC(=O)c1noc(-c2cc(C(C)C)c(O)cc2O)c1-c1noc(OC)n1 [Compound I-86, 5-(2,4-Dihydroxy-5-isopropylphenyl)-N-ethyl-4-(5-methoxy-1,2,4-oxadiazol-3-yl)isoxazole-3-carboxamide] | < 500 | 500 to 1000 | – | – |
| CCNC(=O)c1noc(-c2cc(C(C)C)c(O)cc2O)c1-c1ccnn1C [Compound I-98, 5-(2,4-Dihydroxy-5-isopropylphenyl)-N-ethyl-4-(1-methyl-1H-pyrazol-5-yl)isoxazole-3-carboxamide] | < 500 | < 500 | – | – |
| CCNC(=O)c1cc(-c2c(C(=O)NCC)n[nH]c2-c2cc(C(C)C)c(O)cc2O)on1 [Compound I-29, 5-(5-(2,4-Dihydroxy-5-isopropylphenyl)-3-(ethylcarbamoyl)-1H-pyrazol-4-yl)-N-ethylisoxazole-3-carboxamide] | > 1000 | > 1000 | – | – |
| C=CCNCc1cc(-c2c(C(=O)NCC)noc2-c2cc(C(C)C)c(O)cc2O)on1 [Compound I-44, 3′-((Allylamino)methyl)-5-(2,4-dihydroxy-5-isopropylphenyl)-N-ethyl-4,5′-biis oxazole-3-carboxamide] | < 500 | < 500 | – | – |
| CCNC(=O)c1noc(-c2cc(C(C)C)c(O)cc2O)c1-c1cc(CN(C)C)no1 [Compound I-41, 5-(2,4-Dihydroxy-5-isopropylphenyl)-3′-((dimethylamino)methyl)-N-ethyl-4,5′-biisoxazole-3-carboxamide] | < 500 | < 500 | – | – |
| C=CCO/N=C/c1cc(-c2c(C(=O)NCC)noc2-c2cc(C(C)C)c(O)cc2O)on1 [Compound I-54, 3′-((Allyloxyimino)methyl)-5-(2,4-dihydroxy-5-isopropylphenyl)-N-ethyl-4,5′-biisoxazole-3-carboxamide] | < 500 | 500 to 1000 | – | – |
| CCNC(=O)c1noc(-c2cc(C(C)C)c(O)cc2O)c1-c1cc(/C=N/O)no1 [Compound I-53, 5-(2,4-Dihydroxy-5-isopropylphenyl)-N-ethyl-3′-((hydroxyimino)methyl)-4,5′-biisoxazole-3-carboxamide] | < 500 | 500 to 1000 | – | – |
| CCNC(=O)c1noc(-c2cc(C(C)C)c(O)cc2O)c1-c1cc(C(=O)OCC)no1 [Compound I-15, Ethyl 5-(2,4-dihydroxy-5-isopropylphenyl)-3-(ethylcarbamoyl)-4,5′-biisoxazole-3′-carboxylate] | > 1000 | < 500 | – | – |
| CCNC(=O)c1noc(-c2cc(C(C)C)c(O)cc2O)c1-c1cc(CN(CC)CC)no1 [Compound I-20, 3′-((Diethylamino)methyl)-5-(2,4-dihydroxy-5-isopropylphenyl)-N-ethyl-4,5′-biisoxazole-3-carboxamide] | < 500 | < 500 | – | – |
| CCNC(=O)c1noc(-c2cc(C(C)C)c(O)cc2O)c1-c1noc(CN2CCCCC2)n1 [Compound I-94, 5-(2,4-Dihydroxy-5-isopropylphenyl)-N-ethyl-4-(5-(piperidin-1-ylmethyl)-1,2,4-oxadiazol-3-yl)isoxazole-3-carboxamide] | < 500 | < 500 | – | – |
| CCNC(=O)c1noc(-c2cc(C(C)C)c(O)cc2O)c1-c1nnn(CC)n1 [Compound I-14, 5-(2,4-Dihydroxy-5-isopropylphenyl)-N-ethyl-4-(2-ethyl-2H-tetrazol-5-yl)isoxazole-3-carboxamide] | < 500 | < 500 | – | – |
| CCNC(=O)c1noc(-c2cc(C(C)C)c(O)cc2O)c1-c1noc(CC)n1 [Compound I-62, 5-(2,4-Dihydroxy-5-isopropylphenyl)-N-ethyl-4-(5-ethyl-1,2,4-oxadiazol-3-yl)isoxazole-3-carboxamide] | < 500 | < 500 | – | – |
